Results: PMC10350924, “Design, Synthesis, and Pharmacological Characterization of a Potent Soluble Epoxide Hydrolase Inhibitor for the Treatment of Acute Pancreatitis” (Journal of Medicinal Chemistry, 2023)

Legend:
[1] = Chemical stability in phosphate buffer pH 7.4; type: physicochemical; details: 5 μM
Source text: The chemical and metabolic stabilities of compounds 6, 27, 28, 30, and 36 were monitored using a UHPLC system (Shimadzu, Kyoto, Japan) consisting of a CBM-40 Lite controller, two LC-40B X3 solvent delivery modules, an SPD-M40 photodiode array detector, a CTO-30A column oven and, a SIL-40AC X3 autosampler. The UHPLC system was coupled online to LCMS-2020 single quadrupole mass spectrometer (Shimadzu, Kyoto, Japan) equipped with an electrospray ionization (ESI) source operating in positive mode.
The chromatographic separation was accomplished on a Luna Omega 1.6 μm Polar C18 100 Å, 100 mm × 2.1 mm (Phenomenex, Bologna, Italy) maintained at 40 °C. The optimal mobile phase consisted of 0.1% HCOOH/H2O v/v (A) and 0.1% HCOOH/ACN v/v (B) delivered at a constant flow rate of 0.3 mL min^–1. Analysis was performed in gradient elution as follows: 0–8.00 min, 30–95% B; 8.00–10.00 min, isocratic to 95% B, then 5 min for column re-equilibration.
The ESI was operated in positive mode, with the following parameters: interface temperature, 350 °C; interface voltage, 4.5 kV; DL (desolvation line) temperature, 250 °C; block heater temperature, 200 °C; nebulizing gas flow (N2), 1.5 L min^–1; drying gas pressure, 15 L min^–1. Quantification was performed in SIM (single-ion monitoring) mode.
For the calibration curves, the primary stock solutions (10 mM) of compounds 6, 27, 28, 30, and 36 were prepared in DMSO. The working standard solutions were prepared by serial dilution of the stock solutions in methanol to obtain necessary concentrations (0.25–10 μM). A solution containing an internal standard (IS: tolbutamide) was prepared at 10 μM in methanol. Quantitation of compounds 6, 27, 28, 30, and 36 was performed using linear regression of the response ratios obtained from the calibration curve to calculate the corresponding amount (6: y = 1.97175x + 0.53508, R^2 = 0.9998; 27: y = 2.90980x + 0.03831, R^2 = 0.9993; 28: y = 2.05962x + 0.02242, R^2 = 0.9994; 30: y = 1.98080x + 0.14962, R^2 = 0.9997; 36: y = 4.59526x – 0.13459, R^2 = 0.9991).
1.25 μL of test compounds (5 μM final incubation concentration) was incubated in 200 μL of phosphate buffer at pH 7.4. At each specified time point (0, 0.5, 1, 1.5, and 2 h), the analyte was removed into 200 μL of ice-cold methanol containing internal standard (tolbutamide) to stop degradation. Finally, the concentration of the test compound was quantified by LC-MS. The percentage of compound remaining (relative to the 0 min time point) at the individual time points is then reported. All experiments were performed in triplicate.

[2] = In vivo pharmacokinetic profile in mice after i.p. administration; details: mouse, plasma, ip, 10 mg/kg i.p., single dose
Description: For analysis of plasma levels of 28, mice (6 per group) received 10 mg/kg i.p. injection in a volume of 500 μL of DMSO 2% in saline. After selected time points, the mice were sacrificed (CO2 atmosphere) and blood (approximately 0.7–0.9 mL) was collected by intracardiac puncture using citrate as an anticoagulant. Then, plasma was obtained by centrifugation at 800g at 4 °C for 10 min and immediately frozen at −80 °C. The analyses were performed using a Shimadzu Nexera UHPLC (Kyoto, Japan) consisting of two LC-30AD pumps, a SIL-30AC autosampler, a CTO-20AC column oven, and a CBM-20A controller. Chromatographic conditions have previously been reported in the Chemical and Metabolic Stability section. The chromatographic system was coupled online to a triple quadrupole LCMS-8050 (Shimadzu) equipped with an electrospray ionization (ESI) source operating in positive mode. Quantification was performed in scheduled multiple reaction monitoring (MRM) mode. The transitions (Table S2) were m/z 456 > 149.2 (quantifier ion), 456 > 166.2 (qualifier ion) for compound 28, and m/z 458 > 149.2 (quantifier ion), 458 > 166.2 (qualifier ion) for IS. Dwell time, interface temperature, DL temperature, and heat block temperature were set to 100 ms, 300, 250, and 350 °C, respectively. Nebulizing gas, heating gas, and drying gas flow were set to 3, 10, and 10 L min^–1, respectively. All of the data was collected in the centroid mode and acquired and processed using Lab Solution workstation software. Stock solutions of 28 and IS were prepared in DMSO (1 mg mL^–1). The standards of 28 were prepared by dilution of the stock solution with methanol to obtain the working stock solutions in plasma of the following concentrations: 0.2, 0.5, 1, 5, 10, 20, and 50 ng mL^–1 for calibration curve. Calibration standards were prepared by spiking 100 μL of mouse plasma with a suitable working solution of 28 and IS to obtain a final concentration of 5 ng mL^–1 of the IS in each sample. For the extraction of 28 from mouse plasma, the method of protein precipitation was employed. Briefly, the frozen plasma samples were thawed at room temperature. 200 μL of ice-cold acetonitrile containing IS was added to 100 μL of plasma. The extraction was performed by vortex mixing for 5 min, followed by centrifugation for 10 min at 14,600 rpm at 25 °C. The supernatants were collected, filtered by […] RC-membranes, and then injected in UHPLC-MS/MS. […] The maximum concentration (Cmax) and time to reach Cmax (Tmax) were determined from the plasma concentration versus time data. The area under the plasma concentration–time curve from time 0 to infinity concentration (AUC0–∞) was determined using the linear trapezoidal method. The elimination half-life (T1/2) was calculated using ln(2)/ke.

[3] = 0.5 h, compound remaining relative to 0 min

Row | chemical stability in phosphate buffer (pH 7.4) [1, 3] [%] | chemical stability in phosphate buffer (pH 7.4) ([1]; 1.0 h) [%] | chemical stability in phosphate buffer (pH 7.4) ([1]; 1.5 h) [%] | chemical stability in phosphate buffer (pH 7.4) ([1]; 2.0 h) [%] | Structure (SMILES) | AUC(0-inf) at 24 h [2] [ng·h/mL] | Cmax at 24 h [2] [ng/mL] | Tmax at 24 h [2] [h] | half-life at 24 h [2] [h]
1 | 99.2 ± 1.7 | 95.5 ± 4.5 | 98.9 ± 0.2 | 96.4 ± 0.5 | O=C(NCC12C[C@H]3C[C@@H](C1)C[C@@H](C2)C3)Nc1ccc2c(ccn2Cc2ccc(F)cc2)c1 [Compound 27, 1-(((3R,5R,7R)-Adamantan-1-yl)methyl)-3-(1-(4-fluorobenzyl)-1H-indol-5-yl)urea] | – | – | – | –
2 | 97.9 ± 3.5 | 100.7 ± 4.3 | 100.5 ± 3.5 | 102.4 ± 0.1 | O=C(Nc1ccc2c(c1)CCN2Cc1ccc(F)cc1)NC12C[C@H]3C[C@@H](C1)C[C@@H](C2)C3 [Compound 6, 1-((3S,5S,7S)-Adamantan-1-yl)-3-(1-(4-fluorobenzyl)indolin-5-yl)urea] | – | – | – | –
3 | 102.5 ± 1.1 | 100.3 ± 1.9 | 99.6 ± 0.2 | 102.4 ± 3.5 | O=C(NCC12C[C@H]3C[C@@H](C1)C[C@@H](C2)C3)Nc1ccc2c(ccn2CCc2ccc(F)cc2)c1 [Compound 30, 1-(((3R,5R,7R)-Adamantan-1-yl)methyl)-3-(1-(4-fluorophenethyl)-1H-indol-5-yl)urea] | – | – | – | –
4 | 96.3 ± 3.2 | 95.2 ± 1.8 | 99.8 ± 2.1 | 92.4 ± 2.0 | O=C(NCC12C[C@H]3C[C@@H](C1)C[C@@H](C2)C3)Nc1ccc2c(ccn2C(=O)c2ccc(F)cc2)c1 [Compound 36, 1-(((3R,5R,7R)-Adamantan-1-yl)methyl)-3-(1-(4-fluorobenzoyl)-1H-indol-5-yl)urea] | – | – | – | –

Row | Structure (SMILES) | chemical stability in phosphate buffer (pH 7.4) [1, 3] [%] | chemical stability in phosphate buffer (pH 7.4) ([1]; 1.0 h) [%] | chemical stability in phosphate buffer (pH 7.4) ([1]; 1.5 h) [%] | chemical stability in phosphate buffer (pH 7.4) ([1]; 2.0 h) [%] | AUC(0-inf) at 24 h [2] [ng·h/mL] | Cmax at 24 h [2] [ng/mL] | Tmax at 24 h [2] [h] | half-life at 24 h [2] [h]
5 | CC(C)c1ccc(Cn2ccc3cc(NC(=O)NCC45C[C@H]6C[C@@H](C4)C[C@@H](C5)C6)ccc32)cc1 [Compound 28, 1-(((3R,5R,7R)-Adamantan-1-yl)methyl)-3-(1-(4-isopropylbenzyl)-1H-indol-5-yl)urea] | 102.0 ± 2.7 | 101.7 ± 1.9 | 99.7 ± 2.3 | 102.4 ± 1.8 | 29.9 | 4.17 | 2 | 7.6
